Results published in PubChem BioAssay (NCI).
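How tested: cells in 96-well plates exposed to compound for 48 hours at five concentrations. GI50 marks 50% less growth. The concentration for full growth arrest is given as TGI.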

Experiments:
Assay in all cases: NCI anticancer screen, dose series, 48 h
OVCAR-3 ovarian = test system: OVCAR-3 ovarian
SN12C renal = test system: SN12C renal
ACHN renal = test system: ACHN renal
MOLT-4 leukemia = test system: MOLT-4 leukemia
SK-MEL-28 melanoma = test system: SK-MEL-28 melanoma
OVCAR-5 ovarian = test system: OVCAR-5 ovarian
NCI-H460 lung = test system: NCI-H460 lung
COLO 205 colon = test system: COLO 205 colon
TK-10 renal = test system: TK-10 renal
NCI-H226 lung = test system: NCI-H226 lung

| Structure (SMILES) | GI50 (OVCAR-3 ovarian) [µM] | TGI (OVCAR-3 ovarian) [µM] | GI50 (SN12C renal) [µM] | TGI (SN12C renal) [µM] | GI50 (ACHN renal) [µM] | TGI (ACHN renal) [µM] | GI50 (MOLT-4 leukemia) [µM] | TGI (MOLT-4 leukemia) [µM] | GI50 (SK-MEL-28 melanoma) [µM] | TGI (SK-MEL-28 melanoma) [µM] | GI50 (OVCAR-5 ovarian) [µM] | TGI (OVCAR-5 ovarian) [µM] | GI50 (NCI-H460 lung) [µM] | TGI (NCI-H460 lung) [µM] | GI50 (COLO 205 colon) [µM] | TGI (COLO 205 colon) [µM] | GI50 (TK-10 renal) [µM] | TGI (TK-10 renal) [µM] | TGI (NCI-H226 lung) [µM] | GI50 (NCI-H226 lung) [µM] |
| --- | --- | --- | --- | --- | --- | --- | --- | --- | --- | --- | --- | --- | --- | --- | --- | --- | --- | --- | --- | --- |
| O=C(Nc1ccc(Cl)cc1)Nc1ccc(Cl)c(Cl)c1 | 3.31 | > 100 | 3.42 | > 100 | 3.71 | > 100 | 2.65 | > 100 | 6.07 | > 100 | 4.29 | > 100 | 2.77 | 12.6 | 1.85 | 3.42 | 7.64 | > 100 |  |  |
| CCOC(=O)C(C)(C)Oc1ccc2c(=O)cc(-c3ccc(Cl)cc3)oc2c1 |  | > 100 |  | > 100 |  | > 100 |  | > 100 |  | > 100 |  |  |  | > 100 |  | > 100 |  | > 100 | > 100 |  |
| C=CCn1c(C)nc2cc(Nc3nc(Nc4ccc5nc(C)n(CC=C)c5c4)c4ccccc4n3)ccc21 | 0.183 | 0.342 |  |  | 0.292 | 1.01 | 0.229 | 0.629 | 1.41 | 3.16 | 0.751 | 2 |  |  |  |  | 0.78 | 2.1 | 4.77 | 2.02 |
| O=C(C(O)c1cn(Cc2ccccc2)c2ccccc12)N1CCCCC1 (stereo not given) |  | > 100 |  | > 100 |  | > 100 |  | > 100 |  | > 10 |  | > 100 |  |  |  | > 100 |  | > 10 | > 100 |  |
| Cc1cc2nc3c(C(OC4OC(CO)C(O)C(O)C4O)C(O)CO)nn(-c4ccccc4)c3nc2cc1C (stereo not given) |  | > 100 |  | > 100 |  | > 100 |  | > 100 |  | > 100 |  | > 100 |  | > 100 |  |  |  | > 100 |  |  |
| CCOc1ccccc1NC(=O)/C=C1\NC(=O)CS1 |  | > 100 |  | > 100 |  |  |  | > 100 |  | > 100 |  | > 100 |  | > 100 |  | > 100 |  | > 100 | > 100 |  |
| CCN(CC)c1ccc(N=Nc2ccc(-c3nc4cccnc4o3)cc2)cc1 |  | > 100 |  | > 100 |  | > 100 |  | > 100 |  | > 100 |  | > 100 |  |  |  | > 100 |  | > 100 | > 100 |  |
| CCCC(=O)c1c(NOC2OC(COC(C)=O)C(OC(C)=O)C(OC(C)=O)C2OC(C)=O)nc(OC)n(C)c1=O (stereo not given) |  |  |  | > 100 |  | > 100 |  | > 100 |  | > 100 |  | > 100 |  | > 100 |  | > 100 |  | > 100 | > 100 |  |
| N#CC(C#N)=C(N)/C(C#N)=C\c1ccnc2ccccc12 |  | > 100 |  | 60 |  | > 100 |  | 47.9 |  | 40.2 |  | > 100 |  | > 100 |  | > 100 |  | > 100 |  |  |
| CC(=O)Oc1cc(C)ccc1[C@]1(C)CC[C@H](C)/C1=C\Br | 2.61 | 7.16 | 9.24 | 25.3 | 5.7 | 20.1 | 5.22 | 22.8 | 3.62 | 15.6 | 6.9 | 19.5 | 4.17 | 15.2 | 2.3 | 5.33 | 3.6 | 12.5 |  |  |
| CCCCC#COP(=O)(OCC)OCC |  | > 100 |  | > 100 |  | > 100 |  | > 100 |  |  |  | > 100 |  | > 100 |  | > 100 |  | > 100 | > 100 |  |
| COC1=CC23C=CC1[C@@H](c1ccccc1)C2=C(C)C(=O)N3C(=O)NC1CCCCC1 (stereo not given in full) |  | 59.8 |  |  |  | > 100 |  | 45.9 |  | 42.2 |  | 68.2 |  | 42.2 |  |  |  | 84.3 | 46.6 |  |
| COc1cc(-c2cc(=O)c3cc4c(cc3[nH]2)OCO4)cc(OC)c1OC | > 100 | > 100 |  | > 100 |  | > 100 |  | > 100 |  | > 100 |  |  |  | > 100 |  | > 100 |  | > 100 | > 100 | > 100 |
| O=c1cc(-c2ccccc2)[nH]c2cccc(S)c12 |  | > 100 |  | > 100 |  | > 100 |  | > 100 |  | > 100 |  | > 100 |  | > 100 |  | 19.2 |  |  | 98.7 |  |
| CCOC(=O)CCC(=O)C1c2cccc(O)c2C(=O)c2c(O)cccc21 |  | 2.26 |  | 3.22 |  | 2.9 |  | 13.7 |  | 2.68 |  | 3.38 |  | 1.4 |  | 3.95 |  | 4.76 |  |  |
| NC(N)=N/N=C(/c1nc2ccc([N+](=O)[O-])cc2[nH]c1=O)C(O)c1ccco1 (stereo not given) |  |  |  | > 100 |  | > 100 |  | > 100 |  | > 100 |  | > 100 |  | > 100 |  | > 100 |  | > 100 | > 100 |  |
| O=c1cc(-c2ccccc2)[nH]c2cc(Cl)cc(Cl)c12 |  |  |  | > 100 |  | > 100 |  | > 100 |  | > 100 |  | > 100 |  | > 100 |  | > 100 |  | > 100 | > 100 |  |
| O=C1C(Br)=C[C@H]2C3C=CC(Br)(C3=O)[C@@H]12 (stereo not given in full) |  | 27.1 |  | 25.9 |  | 34.3 |  | 27.2 |  | 25.7 |  | 29 |  |  |  | 21.4 |  |  | 40.9 |  |
| CCN(CC)CCC1CC/C(=C\c2ccc(OC)cc2)C1=O (stereo not given) |  | > 100 |  | > 100 |  | > 100 |  | > 100 |  | > 100 |  | > 100 |  |  |  | 38.9 |  | > 100 | > 100 |  |
| S=C(Nc1ccc(-c2nc3ccccc3[nH]2)cc1)NC1CCCCC1 |  | 43.8 | 25 | 55 | 18.1 | 42.2 | 28.3 | > 100 | 30.6 |  | 42.4 |  |  |  |  | > 100 | 22.8 | 80.6 | 48.9 | 19.6 |
| COP1(=O)CC2C(Cl)(Cl)C2(C)C1 (stereo not given) |  | > 100 |  | > 100 |  |  |  | > 100 |  | > 100 |  |  |  | > 100 |  | > 100 |  | > 100 | > 100 |  |
